The source made the active and inactive calls. No rule for the calls is given here.
How the values were obtained:
[1] = tested on: Cryptococcus neoformans; assay: Antifungal activity against Cryptococcus neoformans H99 assessed as fungal growth inhibition at <= […] uM measured after 48 hrs by resazurin assay; assay type: functional, organism-based
[2] = tested on: Candida albicans; assay: Antifungal activity against Candida albicans clinical isolate 2 assessed as fungal growth inhibition at <= […] uM measured after 48 hrs by resazurin assay; assay type: functional, organism-based

Compound	Activity [1]	Activity [2]
CC(C)Cn1nccc1Nc1cc(O)cc(O)c1C(=O)N1Cc2cccnc2C1	Active	Active
COc1ccc(Cn2nc(C3CC3)cc2Nc2cc(O)cc(O)c2C(=O)N2Cc3cccnc3C2)cc1	Active	Active
Cn1nc(-c2ccc(C(F)(F)F)cc2)cc1Nc1cc(O)cc(O)c1C(=O)N1Cc2ccccc2C1	Active	Active
COc1ccc(Cn2nc(C3CCCC3)cc2Nc2cc(O)cc(O)c2C(=O)N2Cc3cn[nH]c3C2)cc1	Active	Active
Cn1nc(-c2ccccc2)cc1Nc1cc(O)cc(O)c1C(=O)N1Cc2ccccc2C1	Active	Active
COc1ccc(Cn2nc(C(C)C)cc2Nc2cc(O)cc(O)c2C(=O)N2Cc3cn[nH]c3C2)cc1	Active	Active
O=C(c1c(O)cc(O)cc1Nc1ccnn1C1CCCCC1)N1Cc2ccccc2C1	Active	Active
Cn1nc(C2CCCCC2)cc1Nc1cc(O)cc(O)c1C(=O)N1Cc2ccccc2C1	Active	Active
COc1ccc(Cn2nc(-c3ccccc3)cc2Nc2cc(O)cc(O)c2C(=O)N2Cc3ccc(OCCN(C)C)cc3C2)cc1	Active	Active
Cn1nccc1Nc1cc(O)cc(O)c1C(=O)N1Cc2cn[nH]c2C1	Active	Active
CC(C)(C)n1nc(-c2ccccc2)cc1Nc1cc(O)cc(O)c1C(=O)N1Cc2cn[nH]c2C1	Active	Active
COc1ccc(Cn2nccc2Nc2cc(O)cc(O)c2C(=O)N2Cc3ccccc3C2)cc1	Active	Active
Cc1ccc(Cn2nc(C)cc2Nc2cc(O)cc(O)c2C(=O)N2Cc3ccccc3C2)cc1	Active	Active
O=C(c1c(O)cc(O)cc1Nc1ccnn1-c1ccccc1)N1Cc2cn[nH]c2C1	Active	Active
Cn1nc(-c2ccccc2)cc1Nc1cc(O)cc(O)c1C(=O)N1Cc2cccnc2C1	Active	Active
Cn1nccc1Nc1cc(O)cc(O)c1C(=O)N1Cc2ccccc2C1	Active	Active
COc1ccc(-c2cc(Nc3cc(O)cc(O)c3C(=O)N3Cc4cccnc4C3)n(C)n2)cc1	Active	Active
COc1ccc(Cn2nc(C3CCCC3)cc2Nc2cc(O)cc(O)c2C(=O)N2Cc3cccnc3C2)cc1	Active	Active
COc1ccc(Cn2nc(-c3ccccc3)cc2Nc2cc(O)cc(O)c2C(=O)N2CCCC2)cc1	Active	Active
CCc1cc(Nc2cc(O)cc(O)c2C(=O)N2Cc3cccnc3C2)n(Cc2ccc(OC)cc2)n1	Active	Active
Cn1nc(-c2ccc(C(F)(F)F)cc2)cc1Nc1cc(O)cc(O)c1C(=O)N1Cc2cccnc2C1	Active	Active
COc1ccc(Cn2nc(-c3ccccc3)cc2Nc2cc(O)cc(O)c2C(=O)N2Cc3cn[nH]c3C2)cc1	Active	Active
CC(C)Cn1nc(-c2ccccc2)cc1Nc1cc(O)cc(O)c1C(=O)N1Cc2cccnc2C1	Active	Active

Compound	Activity [1]	Activity [2]
COc1ccc(Cn2nc(C)cc2Nc2cc(O)cc(O)c2C(=O)N2Cc3cccc(F)c3C2)cc1	Active	Active
CC(C)c1ccc(Cn2nccc2Nc2cc(O)cc(O)c2C(=O)N2Cc3cccnc3C2)cc1	Active	Active
Cc1ccc(-c2cc(Nc3cc(O)cc(O)c3C(=O)N3Cc4ccccc4C3)n(C)n2)cc1	Active	Active
CC(C)c1cc(Nc2cc(O)cc(O)c2C(=O)N2Cc3ccccc3C2)n(C)n1	Active	Active
COc1ccc(Cn2nc(C)cc2Nc2cc(O)cc(O)c2C(=O)N2Cc3cn[nH]c3C2)cc1	Active	Active
O=C(c1c(O)cc(O)cc1Nc1ccnn1Cc1ccc(C(F)(F)F)cc1)N1Cc2cccnc2C1	Active	Active
O=C(c1c(O)cc(O)cc1Nc1ccnn1CC1CCCCC1)N1Cc2cccnc2C1	Active	Active
Cc1cccc(-c2cc(Nc3cc(O)cc(O)c3C(=O)N3Cc4ccccc4C3)n(C)n2)c1	Active	Active
COc1ccc(Cn2nc(C)cc2Nc2cc(O)cc(O)c2C(=O)N2Cc3cccnc3C2)cc1	Active	Active
O=C(c1c(O)cc(O)cc1Nc1ccnn1-c1ccccc1)N1Cc2ccccc2C1	Active	Active
COc1ccc(Cn2ncc(C(C)C)c2Nc2cc(O)cc(O)c2C(=O)N2Cc3ccccc3C2)cc1	Active	Active
O=C(c1c(O)cc(O)cc1Nc1ccnn1C1CCCCC1)N1Cc2cccnc2C1	Active	Active
CC(C)Cn1nccc1Nc1cc(O)cc(O)c1C(=O)N1Cc2ccccc2C1	Active	Active
CC(C)c1cc(Nc2cc(O)cc(O)c2C(=O)N2Cc3cccnc3C2)n(C)n1	Active	Active
Cn1nc(-c2cccc(C(F)(F)F)c2)cc1Nc1cc(O)cc(O)c1C(=O)N1Cc2cccnc2C1	Active	Active
Cc1ccccc1-c1cc(Nc2cc(O)cc(O)c2C(=O)N2Cc3cccnc3C2)n(C)n1	Active	Active
CC(C)(C)n1nc(-c2ccccc2)cc1Nc1cc(O)cc(O)c1C(=O)N1Cc2cccnc2C1	Active	Active
Cc1cccc(-c2cc(Nc3cc(O)cc(O)c3C(=O)N3Cc4cccnc4C3)n(C)n2)c1	Active	Active
COc1ccc(Cn2nc(C)cc2Nc2cc(O)cc(O)c2C(=O)N2Cc3ccc(OCCN(C)C)cc3C2)cc1	Active	Active
Cn1nc(-c2ccc(C(F)(F)F)cc2)cc1Nc1cc(O)cc(O)c1C(=O)N1Cc2cn[nH]c2C1	Active	Active
CC(C)c1ccc(Cn2nccc2Nc2cc(O)cc(O)c2C(=O)N2Cc3cn[nH]c3C2)cc1	Active	Active
COc1ccc(Cn2nc(-c3ccccc3)cc2Nc2cc(O)cc(O)c2C(=O)N2Cc3ccc(NC4CCN(C)CC4)cc3C2)cc1	Active	Active
O=C(c1c(O)cc(O)cc1Nc1ccnn1Cc1ccccc1)N1Cc2cccnc2C1	Active	Active

Compound	Activity [1]	Activity [2]
O=C(c1c(O)cc(O)cc1Nc1ccnn1C1CCCCC1)N1Cc2cn[nH]c2C1	Active	Active
COc1ccc(Cn2nc(-c3ccoc3)cc2Nc2cc(O)cc(O)c2C(=O)N2Cc3cccnc3C2)cc1	Active	Active
O=C(c1c(O)cc(O)cc1Nc1ccnn1Cc1ccccc1)N1Cc2cn[nH]c2C1	Active	Active
O=C(c1c(O)cc(O)cc1Nc1cc(-c2ccccc2)nn1C1CCCCC1)N1Cc2cccnc2C1	Active	Active
Cc1cc(Nc2cc(O)cc(O)c2C(=O)N2Cc3ccccc3C2)n(Cc2ccccc2C)n1	Active	Active
COc1ccc(Cn2nc(C)cc2Nc2cc(O)cc(O)c2C(=O)N2Cc3ccc(N4CCN(C)CC4)cc3C2)cc1	Active	Active
CCc1cc(Nc2cc(O)cc(O)c2C(=O)N2Cc3cn[nH]c3C2)n(Cc2ccc(OC)cc2)n1	Active	Active
O=C(c1c(O)cc(O)cc1Nc1ccnn1-c1ccccc1)N1Cc2cccnc2C1	Active	Active
COc1ccc(Cn2nc(-c3ccoc3)cc2Nc2cc(O)cc(O)c2C(=O)N2Cc3cn[nH]c3C2)cc1	Active	Active
Cn1nc(-c2ccc(C(C)(C)C)cc2)cc1Nc1cc(O)cc(O)c1C(=O)N1Cc2ccccc2C1	Active	Active
Cc1ccc(-c2cc(Nc3cc(O)cc(O)c3C(=O)N3Cc4cn[nH]c4C3)n(C)n2)cc1	Active	Active
COc1ccc(Cn2nc(C)cc2Nc2cc(O)cc(O)c2C(=O)N2Cc3ccc(NC4CCN(C)CC4)cc3C2)cc1	Active	Active
O=C(c1c(O)cc(O)cc1Nc1ccnn1Cc1ccccc1)N1Cc2ccccc2C1	Active	Active
O=C(c1c(O)cc(O)cc1Nc1ccnn1Cc1cccnc1)N1Cc2cccnc2C1	Active	Active
O=C(c1c(O)cc(O)cc1Nc1ccnn1CC1CCCCC1)N1Cc2ccccc2C1	Active	Active
CC(C)Cn1nc(-c2ccccc2)cc1Nc1cc(O)cc(O)c1C(=O)N1Cc2cn[nH]c2C1	Active	Active
COc1ccc(-c2cc(Nc3cc(O)cc(O)c3C(=O)N3Cc4ccccc4C3)n(C)n2)cc1	Active	Active
COc1ccc(Cn2nc(-c3ccccc3)cc2Nc2cc(O)cc(O)c2C(=O)N2Cc3cccnc3C2)cc1	Active	Active
Cn1nccc1Nc1cc(O)cc(O)c1C(=O)N1Cc2cccnc2C1	Active	Active
COc1ccc(Cn2nc(-c3ccccc3)cc2Nc2cc(O)cc(O)c2C(=O)N2Cc3ccc(F)cc3C2)cc1	Active	Active
CC(C)n1nccc1Nc1cc(O)cc(O)c1C(=O)N1Cc2ccccc2C1	Active	Active
O=C(c1c(O)cc(O)cc1Nc1ccnn1Cc1ccco1)N1Cc2cccnc2C1	Active	Active
Cn1nc(-c2cccc(C(F)(F)F)c2)cc1Nc1cc(O)cc(O)c1C(=O)N1Cc2cn[nH]c2C1	Active	Active

From ChEMBL document CHEMBL4402526, “Design and Synthesis of Fungal-Selective Resorcylate Aminopyrazole Hsp90 Inhibitors” (J Med Chem, 2020)
